These results are taken from article PMC5218480 (PLoS ONE, 2017).

This assay deals with MV-4-11 cells. As to the kind of experiment: Gene expression microarray analysis (Affymetrix PrimeView) and GSEA. More on the design: RFU PODN (11730768_x_at) / Fold change /veh PODN (11730768_x_at) / RFU LINC00158 (11744669_a_at) / Fold change /veh LINC00158 (11744669_a_at) / RFU DUSP10 (11751237_a_at) / Fold change /veh DUSP10 (11751237_a_at) / RFU ID3 (11757404_x_at) / Fold change /veh ID3 (11757404_x_at) / RFU PLEKHG5 (11737974_s_at) / Fold change /veh PLEKHG5 (11737974_s_at) / RFU LRRC4B (11730491_at) / Fold change /veh LRRC4B (11730491_at) / RFU GIMAP4 (11747438_a_at) / Fold change /veh GIMAP4 (11747438_a_at) / RFU KRT8 (11758183_x_at) / Fold change /veh KRT8 (11758183_x_at) / RFU CNN1 (11734310_a_at) / Fold change /veh CNN1 (11734310_a_at) / RFU VPS37D (11726825_at) / Fold change /veh VPS37D (11726825_at) / RFU C10orf10 (11716522_x_at) / Fold change /veh C10orf10 (11716522_x_at) / RFU KIR2DL2 /// KIR2DL4 /// KIR2DL5A /// KIR2DL5B /// KIR2DS1 /// KIR2DS2 /// KIR2DS3 /// KIR2DS4 /// KIR3DL3 /// KIR3DL3 /// KIR3DS1 (11738374_at) / Fold change /veh KIR2DL2 /// KIR2DL4 /// KIR2DL5A /// KIR2DL5B /// KIR2DS1 /// KIR2DS2 /// KIR2DS3 /// KIR2DS4 /// KIR3DL3 /// KIR3DL3 /// KIR3DS1 (11738374_at) / RFU C1QL1 (11718748_at) / Fold change /veh C1QL1 (11718748_at) / RFU TMPRSS4 (11747572_a_at) / Fold change /veh TMPRSS4 (11747572_a_at) / RFU HAMP (11756126_x_at) / Fold change /veh HAMP (11756126_x_at) / RFU RNFT2 (11725882_a_at) / Fold change /veh RNFT2 (11725882_a_at) / RFU NR4A2 (11747474_a_at) / Fold change /veh NR4A2 (11747474_a_at) / RFU ABCC12 (11746883_a_at) / Fold change /veh ABCC12 (11746883_a_at) / RFU TMEM136 (11760407_x_at) / Fold change /veh TMEM136 (11760407_x_at) / RFU CLDN22 /// WWC2 (11732394_at) / Fold change /veh CLDN22 /// WWC2 (11732394_at) / RFU HLA-DPB1 (11760878_x_at) / Fold change /veh HLA-DPB1 (11760878_x_at) / RFU SPINT1 (11716480_a_at) / Fold change /veh SPINT1 (11716480_a_at) / RFU GAP43 (11754022_s_at) / Fold change /veh GAP43 (11754022_s_at) / RFU A4GNT (11735810_at) / Fold change /veh A4GNT (11735810_at) / RFU PRB3 (11715151_x_at) / Fold change /veh PRB3 (11715151_x_at) / RFU TUBB4B (11761932_at) / Fold change /veh TUBB4B (11761932_at) / RFU CAPN14 (11732068_a_at) / Fold change /veh CAPN14 (11732068_a_at) / RFU TMCC2 (11721928_a_at) / Fold change /veh TMCC2 (11721928_a_at) / RFU IRGQ (11745062_a_at) / Fold change /veh IRGQ (11745062_a_at) / RFU FAM174B (11720279_a_at) / Fold change /veh FAM174B (11720279_a_at) / RFU TMPRSS4 (11748680_a_at) / Fold change /veh TMPRSS4 (11748680_a_at) / RFU FAM212B (11763350_a_at) / Fold change /veh FAM212B (11763350_a_at) / RFU PLEKHG5 (11743358_a_at) / Fold change /veh PLEKHG5 (11743358_a_at) / RFU ZSCAN30 (11745921_a_at) / Fold change /veh ZSCAN30 (11745921_a_at) / RFU CMKLR1 (11741424_a_at) / Fold change /veh CMKLR1 (11741424_a_at) / RFU LOC101060620 /// MAPK8IP1 (11723275_at) / Fold change /veh LOC101060620 /// MAPK8IP1 (11723275_at) / RFU SPTSSB (11747773_x_at) / Fold change /veh SPTSSB (11747773_x_at) / RFU PRSS12 (11739890_at) / Fold change /veh PRSS12 (11739890_at) / RFU BIN1 (11741810_x_at) / Fold change /veh BIN1 (11741810_x_at) / RFU WNT11 (11732464_a_at) / Fold change /veh WNT11 (11732464_a_at) / RFU C10orf10 (11716521_a_at) / Fold change /veh C10orf10 (11716521_a_at) / RFU C5orf56 (11738089_at) / Fold change /veh C5orf56 (11738089_at) / RFU CYB561 (11721691_x_at) / Fold change /veh CYB561 (11721691_x_at) / RFU ANKRD19P (11752326_a_at) / Fold change /veh ANKRD19P (11752326_a_at) / RFU OR2T12 /// OR2T33 /// OR2T8 (11738714_s_at) / Fold change /veh OR2T12 /// OR2T33 /// OR2T8 (11738714_s_at) / RFU VCAN (11748164_a_at) / Fold change /veh VCAN (11748164_a_at) / RFU JSRP1 (11732532_at) / Fold change /veh JSRP1 (11732532_at) / RFU KRTAP10-11 (11738290_x_at) / Fold change /veh KRTAP10-11 (11738290_x_at) / RFU MYO3A (11730013_a_at) / Fold change /veh MYO3A (11730013_a_at) / RFU EBF3 (11725865_a_at) / Fold change /veh EBF3 (11725865_a_at) / RFU CAMK2N1 (11719241_x_at) / Fold change /veh CAMK2N1 (11719241_x_at) / RFU C5orf56 (11738088_a_at) / Fold change /veh C5orf56 (11738088_a_at) / RFU OLFML3 (11715873_a_at) / Fold change /veh OLFML3 (11715873_a_at) / RFU LOC100653217 /// NTM (11731650_a_at) / Fold change /veh LOC100653217 /// NTM (11731650_a_at) / RFU MAPK11 (11762145_a_at) / Fold change /veh MAPK11 (11762145_a_at) / RFU FIZ1 (11724087_x_at) / Fold change /veh FIZ1 (11724087_x_at) / RFU OASL (11726364_x_at) / Fold change /veh OASL (11726364_x_at) / RFU SOX15 (11748057_x_at) / Fold change /veh SOX15 (11748057_x_at) / RFU CD79A (11719716_a_at) / Fold change /veh CD79A (11719716_a_at) / RFU HIST1H1D (11736915_at) / Fold change /veh HIST1H1D (11736915_at) / RFU CASKIN2 (11723855_a_at) / Fold change /veh CASKIN2 (11723855_a_at) / RFU LOC730098 (11760151_x_at) / Fold change /veh LOC730098 (11760151_x_at) / RFU OR4N2 (11742367_at) / Fold change /veh OR4N2 (11742367_at) / RFU PRRT2 (11749266_a_at) / Fold change /veh PRRT2 (11749266_a_at) / RFU SNX32 (11753110_a_at) / Fold change /veh SNX32 (11753110_a_at) / RFU CDHR5 (11726645_a_at) / Fold change /veh CDHR5 (11726645_a_at) / RFU RCAN1 (11760418_a_at) / Fold change /veh RCAN1 (11760418_a_at) / RFU FAM167A (11723789_a_at) / Fold change /veh FAM167A (11723789_a_at) / RFU FAM26E (11764081_at) / Fold change /veh FAM26E (11764081_at) / RFU ISYNA1 (11749810_s_at) / Fold change /veh ISYNA1 (11749810_s_at) / RFU ACY1 (11761880_at) / Fold change /veh ACY1 (11761880_at) / RFU 11764098_at / Fold change /veh 11764098_at / RFU SAMD14 (11745864_x_at) / Fold change /veh SAMD14 (11745864_x_at) / RFU NPB (11741838_a_at) / Fold change /veh NPB (11741838_a_at) / RFU TMPRSS6 (11731388_a_at) / Fold change /veh TMPRSS6 (11731388_a_at) / RFU KRTAP10-2 (11738614_at) / Fold change /veh KRTAP10-2 (11738614_at) / RFU ARHGAP8 /// PRR5-ARHGAP8 (11727945_x_at) / Fold change /veh ARHGAP8 /// PRR5-ARHGAP8 (11727945_x_at) / RFU KRTAP5-7 /// NADSYN1 (11734609_at) / Fold change /veh KRTAP5-7 /// NADSYN1 (11734609_at) / RFU RASL12 (11751679_a_at) / Fold change /veh RASL12 (11751679_a_at) / RFU CDKN2B (11736163_a_at) / Fold change /veh CDKN2B (11736163_a_at) / RFU PRF1 (11729649_at) / Fold change /veh PRF1 (11729649_at) / RFU, ZNF638 /// ZNF638-IT1 / Fold change vs veh, ZNF638 /// ZNF638-IT1 / RFU, PANK3 / Fold change vs veh, PANK3 / RFU, SH3YL1 / Fold change vs veh, SH3YL1 / RFU, ZEB2 / Fold change vs veh, ZEB2 / RFU, NRIP1 / Fold change vs veh, NRIP1 / RFU, PTTG1IP / Fold change vs veh, PTTG1IP / RFU, CAPN2 / Fold change vs veh, CAPN2 / RFU, MED14 / Fold change vs veh, MED14 / RFU, SNORA58 / Fold change vs veh, SNORA58 / RFU, C1orf63 / Fold change vs veh, C1orf63 / RFU, LRRFIP1 / Fold change vs veh, LRRFIP1 / RFU, NDUFAF7 / Fold change vs veh, NDUFAF7 / RFU, SLC12A2 / Fold change vs veh, SLC12A2 / RFU, IBTK / Fold change vs veh, IBTK / RFU, ESF1 / Fold change vs veh, ESF1 / Fold change vs veh, TMEM50B / RFU, TAOK1 / Fold change vs veh, TAOK1 / RFU, ACBD3 / Fold change vs veh, ACBD3 / RFU, TMA16 / Fold change vs veh, TMA16 / RFU, RWDD3 / Fold change vs veh, RWDD3 / RFU, BCAT1 / Fold change vs veh, BCAT1 / RFU, EDEM3 / Fold change vs veh, EDEM3 / RFU, TMEM33 / Fold change vs veh, TMEM33 / RFU, WDR75 / Fold change vs veh, WDR75 / RFU, AHCTF1 / Fold change vs veh, AHCTF1 / RFU, TFRC / Fold change vs veh, TFRC / RFU, ZDHHC17 / Fold change vs veh, ZDHHC17 / RFU, NOM1 / Fold change vs veh, NOM1 / RFU, ARL8B / Fold change vs veh, ARL8B / RFU, ZBTB11 / Fold change vs veh, ZBTB11 / RFU, TAMM41 / Fold change vs veh, TAMM41 / RFU, KIAA1704 /// LOC100996395 / Fold change vs veh, KIAA1704 /// LOC100996395 / RFU, ING1 / Fold change vs veh, ING1 / RFU, TRMT61B / Fold change vs veh, TRMT61B / RFU, FUBP3 / Fold change vs veh, FUBP3 / RFU, TP53 / Fold change vs veh, TP53 / RFU, TNKS2 / Fold change vs veh, TNKS2 / RFU, ZFP14 / Fold change vs veh, ZFP14 / RFU, ACTR2 / Fold change vs veh, ACTR2 / RFU, PPP3R1 / Fold change vs veh, PPP3R1 / RFU, PIK3R1 / Fold change vs veh, PIK3R1 / RFU, HNRNPA1 / Fold change vs veh, HNRNPA1 / RFU, RNF170 / Fold change vs veh, RNF170 / RFU, ZNF28 / Fold change vs veh, ZNF28 / RFU, RNGTT / Fold change vs veh, RNGTT / RFU, OGT / Fold change vs veh, OGT / RFU, BRD1 / Fold change vs veh, BRD1 / RFU, MARS / Fold change vs veh, MARS / RFU, ZNF655 / Fold change vs veh, ZNF655 / RFU, FAHD1 / Fold change vs veh, FAHD1 / RFU, BDP1 / Fold change vs veh, BDP1 / RFU, LRRCC1 / Fold change vs veh, LRRCC1 / RFU, ARID1A / Fold change vs veh, ARID1A / RFU, ZNF146 / Fold change vs veh, ZNF146 / RFU, ZNF330 / Fold change vs veh, ZNF330 / RFU, GPN3 / Fold change vs veh, GPN3 / RFU, C9orf123 / Fold change vs veh, C9orf123 / RFU, N4BP2L2 / Fold change vs veh, N4BP2L2 / RFU, ARFIP1 / Fold change vs veh, ARFIP1 / RFU, FAM179B / Fold change vs veh, FAM179B / RFU, BCL10 / Fold change vs veh, BCL10 / RFU, UHRF1BP1L / Fold change vs veh, UHRF1BP1L / RFU, BET1 / Fold change vs veh, BET1 / RFU, CNOT2 / Fold change vs veh, CNOT2 / RFU, ZNF268 / Fold change vs veh, ZNF268 / Fold change vs veh, ZNF507 / RFU, DGCR2 / Fold change vs veh, DGCR2 / RFU, WDSUB1 / Fold change vs veh, WDSUB1 / Fold change vs veh, HSP90B1 /// MIR3652 / RFU, ADSS / Fold change vs veh, ADSS / RFU, GK / Fold change vs veh, GK / RFU, ZNF148 / Fold change vs veh, ZNF148 / RFU, TAF9 / Fold change vs veh, TAF9 / RFU, SLC1A5 / Fold change vs veh, SLC1A5 / RFU, SLMO2 / Fold change vs veh, SLMO2 / RFU, ABCC4 / Fold change vs veh, ABCC4 / RFU, LOC101060439 /// RAP1B / Fold change vs veh, LOC101060439 /// RAP1B / RFU, RFX7 / Fold change vs veh, RFX7 / RFU, GTPBP10 / Fold change vs veh, GTPBP10 / RFU, CNEP1R1 / Fold change vs veh, CNEP1R1 / RFU, BIVM-ERCC5 /// ERCC5 / Fold change vs veh, BIVM-ERCC5 /// ERCC5 / RFU, ILF3 / Fold change vs veh, ILF3 / RFU 11762660_at / Fold change /veh 11762660_at / RFU VCAN (11757783_s_at) / Fold change /veh VCAN (11757783_s_at) / RFU DDX43 (11728927_at) / Fold change /veh DDX43 (11728927_at) / RFU KRT8 (11758188_x_at) / Fold change /veh KRT8 (11758188_x_at) / RFU NKD1 (11759106_at) / Fold change /veh NKD1 (11759106_at) / RFU SRD5A1 (11742802_a_at) / Fold change /veh SRD5A1 (11742802_a_at) / RFU TPSAB1 /// TPSB2 (11721975_s_at) / Fold change /veh TPSAB1 /// TPSB2 (11721975_s_at) / RFU GSTM3 (11746129_a_at) / Fold change /veh GSTM3 (11746129_a_at) / RFU IL23R (11737362_x_at) / Fold change /veh IL23R (11737362_x_at) / RFU TMEM51 (11727254_a_at) / Fold change /veh TMEM51 (11727254_a_at) / RFU PIWIL2 (11732686_x_at) / Fold change /veh PIWIL2 (11732686_x_at) / RFU ORM1 (11744905_x_at) / Fold change /veh ORM1 (11744905_x_at) / RFU CCDC152 (11743942_at) / Fold change /veh CCDC152 (11743942_at) / RFU ECM1 (11717891_a_at) / Fold change /veh ECM1 (11717891_a_at) / RFU IL23R (11748794_a_at) / Fold change /veh IL23R (11748794_a_at) / RFU TNFAIP8L3 (11732012_x_at) / Fold change /veh TNFAIP8L3 (11732012_x_at) / RFU MBOAT4 (11741988_at) / Fold change /veh MBOAT4 (11741988_at) / RFU 11764193_at / Fold change /veh 11764193_at / RFU TMEM53 (11763286_at) / Fold change /veh TMEM53 (11763286_at) / RFU MAGEB2 (11727129_at) / Fold change /veh MAGEB2 (11727129_at) / RFU TMEM200A (11744735_a_at) / Fold change /veh TMEM200A (11744735_a_at) / RFU CCDC152 (11751479_a_at) / Fold change /veh CCDC152 (11751479_a_at) / RFU FAM211A (11726209_a_at) / Fold change /veh FAM211A (11726209_a_at) / RFU RGS16 (11746705_a_at) / Fold change /veh RGS16 (11746705_a_at) / RFU VCAN (11755009_s_at) / Fold change /veh VCAN (11755009_s_at) / RFU RHOB (11743442_s_at) / Fold change /veh RHOB (11743442_s_at) / RFU RGS16 (11720943_a_at) / Fold change /veh RGS16 (11720943_a_at) / RFU RGS16 (11720944_at) / Fold change /veh RGS16 (11720944_at) / RFU, VPS4B / Fold change vs veh, VPS4B / RFU, CREB1 / Fold change vs veh, CREB1 / RFU, DNAJC13 / Fold change vs veh, DNAJC13 / RFU, GNAQ / Fold change vs veh, GNAQ / RFU, CDK5R1 / Fold change vs veh, CDK5R1 / RFU, ZRANB3 / Fold change vs veh, ZRANB3 / RFU, CUL4A / Fold change vs veh, CUL4A / RFU, CCNY / Fold change vs veh, CCNY / RFU, UFL1 / Fold change vs veh, UFL1 / RFU, COG3 / Fold change vs veh, COG3 / RFU, DIAPH2 / Fold change vs veh, DIAPH2 / RFU, SKA2 / Fold change vs veh, SKA2 / RFU, AFF3 / Fold change vs veh, AFF3 / RFU, LMF1 / Fold change vs veh, LMF1 / RFU, IPO11 / Fold change vs veh, IPO11 / RFU, DFFB / Fold change vs veh, DFFB / RFU, FOXP1 / Fold change vs veh, FOXP1 / RFU, CARD8 / Fold change vs veh, CARD8 / RFU, STRN3 / Fold change vs veh, STRN3 / RFU, ADK / Fold change vs veh, ADK / RFU, RASSF2 / Fold change vs veh, RASSF2 / RFU, WIPF1 / Fold change vs veh, WIPF1 / RFU, LARP1B / Fold change vs veh, LARP1B / RFU, RASA1 / Fold change vs veh, RASA1 / RFU, RB1 / Fold change vs veh, RB1 / RFU, PPFIA1 / Fold change vs veh, PPFIA1 / RFU, MAT2A / Fold change vs veh, MAT2A / RFU, CCT5 / Fold change vs veh, CCT5 / RFU, WDR92 / Fold change vs veh, WDR92 / RFU, CUX1 / Fold change vs veh, CUX1 / RFU, TTC7A / Fold change vs veh, TTC7A / RFU, TMEM135 / Fold change vs veh, TMEM135 / RFU, DEPTOR / Fold change vs veh, DEPTOR / RFU, CPM / Fold change vs veh, CPM / RFU, DNAJB6 / Fold change vs veh, DNAJB6 / RFU, CACNA2D3 / Fold change vs veh, CACNA2D3 / RFU, DTX4 / Fold change vs veh, DTX4 / RFU, TFCP2 / Fold change vs veh, TFCP2 / RFU, GMCL1 /// GMCL1P1 / Fold change vs veh, GMCL1 /// GMCL1P1 / RFU, AEBP2 / Fold change vs veh, AEBP2 / RFU, SNHG1 /// SNORD22 /// SNORD25 /// SNORD26 /// SNORD27 /// SNORD28 /// SNORD29 /// SNORD31 / Fold change vs veh, SNHG1 /// SNORD22 /// SNORD25 /// SNORD26 /// SNORD27 /// SNORD28 /// SNORD29 /// SNORD31 / Fold change (Aza/veh), C12orf56 (ProbeSet 11735607_a_at) / Fold change (ACY-1035/veh), C12orf56 (ProbeSet 11735607_a_at) / Fold change (Aza/veh), FGFR1OP (ProbeSet 11751329_s_at) / Fold change (ACY-1035/veh), FGFR1OP (ProbeSet 11751329_s_at) / Fold change (Aza/veh), VPS36 (ProbeSet 11739960_a_at) / Fold change (ACY-1035/veh), VPS36 (ProbeSet 11739960_a_at) / RFU SYPL1 (11715823_x_at) / Fold change /veh SYPL1 (11715823_x_at) / RFU IGFBP7 (11715501_s_at) / Fold change /veh IGFBP7 (11715501_s_at) / RFU REEP3 (11722064_at) / Fold change /veh REEP3 (11722064_at) / RFU IGLL1 (11728026_x_at) / Fold change /veh IGLL1 (11728026_x_at): dose or concentration left out as unconfirmed. The settings on record: ProbeSet 11721521_at; LIST B. In kind it is cell-based, human.

On to `Nc1ncn([C@@H]2O[C@H](CO)[C@@H](O)[C@H]2O)c(=O)n1` [azacitidine], for which the “RFU, ZDHHC17” value was 48.06 RFU.
